Source: article PMC12038849, “Identification and Characterization of a Leoligin-Inspired Synthetic Lignan as a TGR5 Agonist” (Journal of Natural Products, 2025)

Target: T1, G-protein coupled bile acid receptor 1 (GPBAR1 or TGR5) (Homo sapiens, UniProt Q8TDU6)
T1 construct: human TGR5-ORF (NM_170699), stably expressed in HEK EPAC cells
T1 sequence (Q8TDU6 1-330): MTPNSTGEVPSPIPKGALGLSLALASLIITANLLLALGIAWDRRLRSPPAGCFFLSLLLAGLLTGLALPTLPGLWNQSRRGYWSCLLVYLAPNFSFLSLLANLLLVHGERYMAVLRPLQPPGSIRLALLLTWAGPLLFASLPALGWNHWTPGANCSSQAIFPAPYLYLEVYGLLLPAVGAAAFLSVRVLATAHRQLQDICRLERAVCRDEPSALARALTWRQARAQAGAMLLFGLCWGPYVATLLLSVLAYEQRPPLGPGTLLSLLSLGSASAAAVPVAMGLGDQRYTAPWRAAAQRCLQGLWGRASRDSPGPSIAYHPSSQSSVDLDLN
Experiment: EPAC FRET cAMP accumulation assay in TGR5-expressing HEK cells; inactive in non-TGR5 cells
Assay type: cell-based

EC50: 23 µM
SMILES: C/C=C(/C)C(=O)OCC[C@H]1[C@@H](Cc2ccc(OC)c(OC)c2)CO[C@@H]1c1ccc(OC)c(OC)c1 [compound 1, LT-188A]
